Here are results for 19 compounds from patent US20140221340A1 (KYOWA HAKKO KIRIN CO., LTD., priority 2011, published 2014).

Bounds are passed on as bounds.

The target of this assay is T1, human CCR10 (Homo sapiens, UniProt P46092).
T1 construct: expressed in transfected cells; host or cells: KJMGER8 cell (cell line derived from Namalwa cell); expression induced with 10 nmol/L β-estradiol
T1 sequence (P46092 1-362): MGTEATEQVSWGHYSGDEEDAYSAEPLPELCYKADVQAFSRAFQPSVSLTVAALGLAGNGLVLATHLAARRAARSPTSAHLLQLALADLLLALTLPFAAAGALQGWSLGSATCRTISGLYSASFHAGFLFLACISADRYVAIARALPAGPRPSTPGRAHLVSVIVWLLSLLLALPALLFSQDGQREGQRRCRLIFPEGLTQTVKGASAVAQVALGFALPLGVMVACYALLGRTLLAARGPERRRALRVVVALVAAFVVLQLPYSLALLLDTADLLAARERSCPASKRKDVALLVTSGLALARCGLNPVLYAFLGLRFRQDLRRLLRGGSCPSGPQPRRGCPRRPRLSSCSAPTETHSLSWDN
Briefly: Calcium assay of human CCR10 (inhibition of CTACK-induced increase in intracellular calcium ion concentration in hCCR10G16 cells). Conditions: test compound 100 nmol/L; human recombinant CTACK; hCCR10G16 cells (KJMGER8/Namalwa-derived, Gα16 co-expressed); FLIPR or FDSS; read-out: Inhibitory rate (%) for an increase in calcium ion concentration. It is filed as cell-based. As for the experimental part:
A CCR10-inducible expression plasmid was produced according to a known method (“Analytical Biochemistry”, 2006, vol. 400, page 163). A DNA encoding human CCR10 was obtained by PCR. Using human chromosomal DNA (100 ng; manufactured by Clontech Laboratories, Inc.) as a template, a synthetic DNA having the sequences shown by SEQ ID NOs: 1 and 2 as a human CCR10 cDNA specific primer, and Pyrobest DNA Polymerase (manufactured by TAKARA SHUZO CO. LTD.) as an enzyme, a DNA encoding human CCR10 was obtained by PCR. As a buffer solution for PCR, the buffer solution attached to the enzyme was diluted 10-fold with deionized water and used. Using Thermal Cycler DNA Engine (manufactured by MJ Research), PCR was performed by 35 cycles of reactions composed of an incubation at 90° C. for 2 min, at 94° C. for 30 seconds, at an anneal temperature of 58° C. for 30 seconds, and at 72° C. for 1 min.
The amplified PCR fragment was cleaved with HindIII and NotI, then a human CCR10 DNA fragment was recovered by an agarose gel electrophoresis method. The fragment was incorporated in between the corresponding restriction enzyme sites (HindIII-NotI) of an inducible expression vector, whereby a human CCR10-inducible expression plasmid were prepared.
Using a primer specific to the sequence of the plasmid (synthetic DNA having the sequences shown by SEQ ID NOs: 3 and 4), the sequence of human CCR10 DNA region was determined. For the determination of the base sequence, DNA sequencer 377 (manufactured by PerkinElmer) and a reaction kit (ABI Prism (registered trade mark) BigDye (registered trade mark) Terminator Cycle Sequencing Ready Reaction kit: manufactured by Applied Biosystems) were used. The sequence of human CCR10 DNA matched with the sequence (NM_016602) registered in GenBank.
Cells for the detection of the signal from human CCR10 by a calcium assay were prepared. Human CCR10-inducible expressing cells whose host cell is KJMGER8 cell (cell line derived from Namalwa cell) were prepared according to a known method (“Analy Biochem”, 2006, vol. 400, page 163). Human CCR10-inducible expression plasmid produced above and Gα16 expression plasmid were co-transfected into KJMGER8 cell by an electroporation method (“Cytotechnology”, 1990, vol. 3, page 133), whereby a signal from human CCR10 could be detected by a calcium assay (hereinafter to be referred to as hCCR10G16 cell). Gα16 expression plasmid was produced by incorporating human Gα16 DNA into expression vector pAMoh (WO03/087366). Induced expression of human CCR10 was performed by cultivating hCCR10G16 cells in the presence of 10 nmol/L β-estradiol (manufactured by Sigma Ltd.) for 24 hr.
Cells expressing human CCR10 induced by the above-mentioned method were suspended in RPMI1640 medium and adjusted to cell density of 1.25×10^6 cells/mL. This mixture was dispensed to a 384 well clear bottom plate (manufactured by Corning Incorporated) at 20 μL/well, and these were incubated at 37° C. for several dozen minutes. A loading buffer prepared according to the protocol attached to FLIPR Calcium 3 assay kit (manufactured by Molecular Device) was dispensed to this plate at 20 μL/well, and the plate was incubated at 37° C. for 60 min. A 33 μmol/L DMSO solution of the test compound was diluted 37-fold with RPMI1640 medium and the resulting solution was added at 5 μL/well, and the mixture was incubated at 37° C. for 30 min. 300 nmol/L human recombinant CTACK (manufactured by R and D Systems) diluted with RPMI1640 medium containing 1 w/v % bovine serum albumin was added at 5 μL/well. Change of the intracellular calcium ion concentration for about 5 min after the addition was measured by FLIPR (manufactured by Molecular Device) or FDSS (manufactured by Hamamatsu Photonics K.K.). The difference between the maximum fluorescence intensity and the minimum fluorescence intensity for 5 min was calculated, and taken as the measurement value (maximum fluorescence intensity−minimum fluorescence intensity). […]
(Calcium assays in cells follow changes in intracellular calcium, usually with a dye or a luminescent sensor.)
On to `Cc1cc(F)ccc1Nc1c(C(=O)N2CCC(c3ccccc3)CC2)cnc2c(S(=O)(=O)NC(=O)C3CC3)cnn12` [a-1, N-[7-(4-Fluoro-2-methylphenylamino)-6-(4-phenylpiperidine-1-carbonyl)pyrazolo[1,5-a]pyrimidin-3-ylsulfonyl]cyclopropanecarboxamide], for which the inhibition at 0.1 µM came to 93.4%.

For the compound `CCNS(=O)(=O)c1cnn2c(Nc3ccc(F)cc3C)c(C(=O)N3CCC(c4ccccc4)CC3)cnc12` [a-2, N-Ethyl-7-(4-fluoro-2-methylphenylamino)-6-(4-phenylpiperidine-1-carbonyl)pyrazolo[1,5-a]pyrimidine-3-sulfonamide], the inhibition at 0.1 µM is above 100%.

Regarding `CCNS(=O)(=O)c1cnn2c(Nc3ccc(F)cc3C)c(C(=O)N3CCC(c4ccc(F)cc4)CC3)cnc12` [a-3, N-Ethyl-7-(4-fluoro-2-methylphenylamino)-6-[4-(4-fluorophenyl)piperidine-1-carbonyl]pyrazolo[1,5-a]pyrimidine-3-sulfonamide], the inhibition at 0.1 µM was above 100%.

For `Cc1cc(F)ccc1Nc1c(C(=O)N2CCC(c3ccc(F)cc3)CC2)cnc2c(S(=O)(=O)NCC(F)(F)F)cnn12` [a-4, 7-(4-Fluoro-2-methylphenylamino)-6-[4-(4-fluorophenyl)piperidine-1-carbonyl]-N-(2,2,2-trifluoroethyl)pyrazolo[1,5-a]pyrimidine-3-sulfonamide], the inhibition at 0.1 µM is above 100%.

Regarding `Cc1cc(F)ccc1Nc1c(C(=O)N2CCC(c3ccc(F)cc3)CC2)cnc2c(S(=O)(=O)NC3CC3)cnn12` [a-5, N-Cyclopropyl-7-(4-fluoro-2-methylphenylamino)-6-[4-(4-fluorophenyl)piperidine-1-carbonyl]pyrazolo[1,5-a]pyrimidine-3-sulfonamide], the inhibition at 0.1 µM was above 100%.

On to `O=C(NS(=O)(=O)c1cnn2c(Nc3ccccc3Cl)c(C(=O)N3CCC(c4ccccc4)CC3)cnc12)C1CC1` [a-6, N-[7-(2-Chlorophenylamino)-6-(4-phenylpiperidine-1-carbonyl)pyrazolo[1,5-a]pyrimidin-3-ylsulfonyl]cyclopropanecarboxamide], for which the inhibition at 0.1 µM worked out at 98.9%.

For the compound `CCNC(=O)NS(=O)(=O)c1cnn2c(Nc3ccccc3Cl)c(C(=O)N3CCC(c4ccccc4)CC3)cnc12` [a-7, 7-(2-Chlorophenylamino)-N-(ethylcarbamoyl)-6-(4-phenylpiperidine-1-carbonyl)pyrazolo[1,5-a]pyrimidine-3-sulfonamide], the inhibition at 0.1 µM is 92.4%.

Regarding `COC(=O)NS(=O)(=O)c1cnn2c(Nc3ccccc3Cl)c(C(=O)N3CCC(c4ccccc4)CC3)cnc12` [a-8, Methyl 7-(2-chlorophenylamino)-6-(4-phenylpiperidine-1-carbonyl)pyrazolo[1,5-a]pyrimidin-3-ylsulfonylcarbamate], the inhibition at 0.1 µM stood at 99.6%.

For the compound `O=C(NS(=O)(=O)c1cnn2c(Nc3ccccc3Cl)c(C(=O)N3CCC(c4ccc(F)cc4)CC3)cnc12)C1CC1` [a-9, N-{7-(2-Chlorophenylamino)-6-[4-(4-fluorophenyl)piperidine-1-carbonyl]pyrazolo[1,5-a]pyrimidin-3-ylsulfonyl}cyclopropanecarboxamide], the inhibition at 0.1 µM was 80.6%.

`CCNC(=O)NS(=O)(=O)c1cnn2c(Nc3ccccc3Cl)c(C(=O)N3CCC(c4ccc(F)cc4)CC3)cnc12` [a-10, 7-(2-Chlorophenylamino)-N-(ethylcarbamoyl)-6-[4-(4-fluorophenyl)piperidine-1-carbonyl]pyrazolo[1,5-a]pyrimidine-3-sulfonamide]: the inhibition at 0.1 µM is above 100%.

Turning to `COCCNS(=O)(=O)c1cnn2c(Nc3ccccc3Cl)c(C(=O)N3CCC(c4ccc(F)cc4)CC3)cnc12` [a-11, 7-(2-Chlorophenylamino)-6-[4-(4-fluorophenyl)piperidine-1-carbonyl]-N-(2-methoxyethyl)pyrazolo[1,5-a]pyrimidine-3-sulfonamide], the inhibition at 0.1 µM was 28.9%.

In the case of `Cc1ccc(Cl)c(Nc2c(C(=O)N3CCC(c4ccc(F)cc4)CC3)cnc3c(S(=O)(=O)NC(=O)C4CC4)cnn23)c1` [a-12, N-{7-(2-Chloro-5-methylphenylamino)-6-[4-(4-fluorophenyl)piperidine-1-carbonyl]pyrazolo[1,5-a]pyrimidin-3-ylsulfonyl}cyclopropanecarboxamide], the inhibition at 0.1 µM is above 100%.

Turning to `CCC(=O)NS(=O)(=O)c1cnn2c(Nc3cc(C)ccc3Cl)c(C(=O)N3CCC(c4ccc(F)cc4)CC3)cnc12` [a-13, N-{7-(2-Chloro-5-methylphenylamino)-6-[4-(4-fluorophenyl)piperidine-1-carbonyl]pyrazolo[1,5-a]pyrimidin-3-ylsulfonyl}ethanecarboxamide], the inhibition at 0.1 µM was above 100%.

Regarding `CCNC(=O)NS(=O)(=O)c1cnn2c(Nc3cc(C)ccc3Cl)c(C(=O)N3CCC(c4ccc(F)cc4)CC3)cnc12` [a-14, 7-(2-Chloro-5-methylphenylamino)-N-(ethylcarbamoyl)-6-[4-(4-fluorophenyl)piperidine-1-carbonyl]pyrazolo[1,5-a]pyrimidine-3-sulfonamide], the inhibition at 0.1 µM is above 100%.

`CCNS(=O)(=O)c1cnn2c(Nc3cc(C)ccc3Cl)c(C(=O)N3CCC(c4ccc(F)cc4)CC3)cnc12` [a-15, N-Ethyl-7-(2-chloro-5-methylphenylamino)-6-[4-(4-fluorophenyl)piperidine-1-carbonyl]pyrazolo[1,5-a]pyrimidine-3-sulfonamide]: the inhibition at 0.1 µM was 87.8%.

Consider `CCNS(=O)(=O)c1cnn2c(Nc3ccc(Cl)cc3C)c(C(=O)N3CCC(c4ccc(F)cc4)CC3)cnc12` [a-16, N-Ethyl-7-(4-chloro-2-methylphenylamino)-6-[4-(4-fluorophenyl)piperidine-1-carbonyl]pyrazolo[1,5-a]pyrimidine-3-sulfonamide], for which the inhibition at 0.1 µM was above 100%.

`CC(=O)NS(=O)(=O)c1cnn2c(Nc3ccc(F)cc3C)c(C(=O)N3CCC(c4ccccc4)CC3)cnc12` [a-17, N-[7-(4-Fluoro-2-methylphenylamino)-6-(4-phenylpiperidine-1-carbonyl)pyrazolo[1,5-a]pyrimidin-3-ylsulfonyl]acetamide]: the inhibition at 0.1 µM was above 100%.

Consider `CCC(=O)NS(=O)(=O)c1cnn2c(Nc3ccc(C)cc3Cl)c(C(=O)N3CCC(c4ccc(F)cc4)CC3)cnc12` [a-18, N-{7-(2-Chloro-4-methylphenylamino)-6-[4-(4-fluorophenyl)piperidine-1-carbonyl]pyrazolo[1,5-a]pyrimidin-3-ylsulfonyl}propionamide], for which the inhibition at 0.1 µM was 98.3%.

With `CCC(=O)NS(=O)(=O)c1cnn2c(Nc3ccc(Cl)cc3Cl)c(C(=O)N3CCC(c4ccc(F)cc4)CC3)cnc12` [a-19, N-{7-(2,4-Dichlorophenylamino)-6-[4-(4-fluorophenyl)piperidine-1-carbonyl]pyrazolo[1,5-a]pyrimidin-3-ylsulfonyl}propionamide], the inhibition at 0.1 µM is 97%.
